{
  "source": "patent US20040253265A1",
  "about": "“Biological compositions and methods for treatment of bladder cancer” (priority 2003, published 2004)",
  "key": {"[1]": {"tested_on": "BBN-induced T739 bladder cancer cells (murine bladder transitional cell line BTT739)", "assay": "Survival of T739 mice with transplanted bladder cancer cells (Example 7)", "format": "in vivo", "settings": "for Number of live animals remaining in the groups after 30 days of treatment: 30 mice per group", "procedure": "The following example illustrates the benefit of a biological composition of the invention in a mouse model of human bladder cancer based on a murine bladder transitional cell line BTT739. The survival time of mice after tumor injection and treatment was studied.\n(§1) The biological composition comprising 10^8 cells per ml of activated and conditioned yeast cells of the strain Saccharomyces cerevisiae Hansen strain AS2.4 was prepared by the methods described in Sections 5.1 and subsections therein.\nThe tumors were prepared in a similar manner as described in Sections 6.1.\nThe animals were prepared in a similar manner as described in Section 6.2.\n(§2) The mice injected with tumor cells were kept for 5 days and then were divided into 4 experimental groups of ten mice per group and one control group. The four experimental groups were triplicated (i.e., using a total of 120 mice in the experimental groups). In group 2AY, the mice received 0.3 ml of the biological composition once per day. In group 2NY, the mice received 0.3 ml of the untreated yeast cells once per day. In group 2TSPA, the mice were injected intravenously with 1.5 mg of thiotepa (TSPA) per kg body weight per day. In group 2CK1, the mice received 0.3 ml of physiological saline once per day.\nThe mice received a biological composition, untreated yeast cells, TSPA or saline on the same day as the tumor cells were transplanted. The mice in group CK2 also started receiving saline on the same day as the other four groups. The biological composition, untreated yeast cells or saline were administered orally by a feeding tube and the TSPA by intravenous injection for 30 consecutive days. The mice were observed over 6 months from the day of tumor inoculation and survival was recorded. The weight of the mice and the weight of the tumor were determined by standard techniques.\nEach of the 30 mice in each group received 30 consecutive days of either untreated yeast cells, TSPA, saline or a biological composition of the invention."}, "[2]": {"tested_on": "BBN-induced T739 bladder cancer cells (murine bladder transitional cell line BTT739)", "assay": "Tumor growth in T739 mice with transplanted bladder cancer cells (Example 6)", "format": "in vivo, mouse", "settings": "tumor-bearing T739 mice; 30 consecutive days of treatment (yeast 0.3 ml oral once per day; TSPA 1.5 mg/kg/day i.v.); sacrificed on 31st day", "procedure": "The mice injected with tumor cells were kept for 5 days and then were divided into 4 experimental groups of ten mice per group and one control group. The four experimental groups were triplicated (i.e., using a total of 120 mice in the experimental groups).\nThe mice in group CK2 also started receiving saline on the same day as the other four groups. […] The weight of the mice and the weight of the tumor were determined by standard techniques."}, "[3]": {"tested_on": "bladder cell line BBN", "assay": "Tumor growth in Wistar rats with transplanted bladder cancer cells (Example 8)", "format": "in vivo, rat", "settings": "tumor-bearing Wistar rats; 30 consecutive days of treatment (yeast 0.3 ml oral once per day; VCR 3 mg/kg/day i.v.); sacrificed on 31st day", "procedure": "The four experimental groups were triplicated (i.e., using a total of 120 rats in the experimental groups).\nThe weight of the rats and the weight of the tumor were determined by standard techniques."}, "[4]": {"tested_on": "bladder cell line BBN", "assay": "Survival of Wistar rats with transplanted bladder cancer cells (Example 9)", "format": "in vivo", "settings": "for Number of live animals remaining in the groups after 30 days of treatment: 30 rats per group", "procedure": "The following example illustrates the benefit of a biological composition of the invention in a Wistar rat model of human bladder cancer. The survival time of the rats after tumor injection and treatment was studied.\nas §1\nThe animals were prepared in a similar manner as described in Section 8.1.\nas §2, with “rats” for “mice”, “2VCR,” for “2TSPA,”, “3” for “1.5”, “[…] (VCR)” for “thiotepa (TSPA)”\nThe rats received a biological composition, untreated yeast cells, VCR or saline on the same day as the tumor cells were transplanted. The rats in group 2CK2 also started receiving saline on the same day as the other four groups. The biological composition, untreated yeast cells and saline were administered orally by a feeding tube and the VCR by intravenous injection for 30 consecutive days. The rats were observed over 6 months from the day of tumor inoculation and survival was recorded. The weight of the rats and the weight of the tumor were determined by standard techniques.\nEach of the 30 rats in each group received 30 consecutive days of either untreated yeast cells, VCR, saline or a biological composition of the invention."}, "[5]": {"settings": "0 month after cessation of treatment"}, "[6]": {"settings": "1 month after cessation of treatment"}, "[7]": {"settings": "2 months after cessation of treatment"}, "[8]": {"settings": "3 months after cessation of treatment"}, "[9]": {"settings": "4 months after cessation of treatment"}, "[10]": {"settings": "5 months after cessation of treatment"}, "[11]": {"settings": "6 months after cessation of treatment"}, "[12]": {"settings": "mice that survived the 6 months observation after 30 days of treatment"}, "[13]": {"settings": "rats that survived the 6 months observation after 30 days of treatment"}},
  "data": [
    {"smiles": "S=P(N1CC1)(N1CC1)N1CC1", "note": "[TSPA, thiotepa]", "values": [
      {"measurement": "Number of live animals remaining in the groups after 30 days of treatment", "setting": "[1]; [5]", "result": 30},
      {"measurement": "Number of live animals remaining in the groups after 30 days of treatment", "setting": "[1]; [6]", "result": 24},
      {"measurement": "Number of live animals remaining in the groups after 30 days of treatment", "setting": "[1]; [7]", "result": 11},
      {"measurement": "Number of live animals remaining in the groups after 30 days of treatment", "setting": "[1]; [8]", "result": 7},
      {"measurement": "Number of live animals remaining in the groups after 30 days of treatment", "setting": "[1]; [9]", "result": 2},
      {"measurement": "Number of live animals remaining in the groups after 30 days of treatment", "setting": "[1]; [10]", "result": 0},
      {"measurement": "Number of live animals remaining in the groups after 30 days of treatment", "setting": "[1]; [11]", "result": 0},
      {"measurement": "survival outcome during the experiment", "setting": "[1]; 30 days of treatment, observed over 6 months", "result": "all died during the experiment"},
      {"measurement": "mean weight of mice and standard deviation", "setting": "[1]; [12]", "result": "all animals dead"},
      {"measurement": "mean weight of tumor nodules and standard deviation", "setting": "[1]; [12]", "result": "all animals dead"},
      {"measurement": "mean weight of mice and standard deviation", "setting": "[2]", "result": "19.5 ± 2.2", "unit": "g"},
      {"measurement": "mean weight of tumor nodules and standard deviation", "setting": "[2]", "result": "3.3 ± 2.1", "unit": "mg"}
    ]},
    {"smiles": "CC[C@]1(O)C[C@@H]2CN(CCc3c([nH]c4ccccc34)[C@@](C(=O)OC)(c3cc4c(cc3OC)N(C)[C@H]3[C@@](O)(C(=O)OC)[C@H](OC(C)=O)[C@]5(CC)C=CCN6CC[C@]43[C@@H]65)C2)C1", "note": "[VCR, vinblastine]", "values": [
      {"measurement": "mean weight of rats and standard deviation", "setting": "[3]", "result": "191.3 ± 12.4", "unit": "g"},
      {"measurement": "mean weight of tumor nodules and standard deviation", "setting": "[3]", "result": "2.65 ± 1.7", "unit": "g"},
      {"measurement": "Number of live animals remaining in the groups after 30 days of treatment", "setting": "[4]; [5]", "result": 30},
      {"measurement": "Number of live animals remaining in the groups after 30 days of treatment", "setting": "[4]; [6]", "result": 30},
      {"measurement": "Number of live animals remaining in the groups after 30 days of treatment", "setting": "[4]; [7]", "result": 30},
      {"measurement": "Number of live animals remaining in the groups after 30 days of treatment", "setting": "[4]; [8]", "result": 30},
      {"measurement": "Number of live animals remaining in the groups after 30 days of treatment", "setting": "[4]; [9]", "result": 30},
      {"measurement": "Number of live animals remaining in the groups after 30 days of treatment", "setting": "[4]; [10]", "result": 28},
      {"measurement": "Number of live animals remaining in the groups after 30 days of treatment", "setting": "[4]; [11]", "result": 26},
      {"measurement": "mean weight of rats and standard deviation", "setting": "[4]; [13]", "result": "all animals dead"},
      {"measurement": "mean weight of tumor nodules and standard deviation", "setting": "[4]; [13]", "result": "all animals dead"}
    ]}
  ]
}
